Laboratory results published in the supplement of paper PMC10307832.

Legend:
Experiment in all cases: relative viability (nuclei count vs DMSO), 5 days (fraction); higher = more cells survive
Halofuginone + AZD7762 = compound: O=C(C[C@H]1NCCC[C@@H]1O)Cn1cnc2cc(Br)c(Cl)cc2c1=O (racemic) [Halofuginone] + NC(=O)Nc1cc(-c2cccc(F)c2)sc1C(=O)N[C@H]1CCCNC1 [AZD7762] (partner 0.2 µM)
Method in brief: (§1)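 Lung cancer cell lines were seeded in 1536-well plates and dosed by pin tool the next day, with either a single drug or a fixed anchor-drug dose combined with five library-drug doses (not always all listed) spaced in √10 steps. Five days later, one step fixed the cells and stained their nuclei (final 0.05% Triton X-100, 1% formaldehyde, 1 ug/ml Hoechst), and nuclei were counted on 4× images. Relative viability is the nuclei count in treated wells divided by the count in vehicle wells, and each value is the median of duplicate plates.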

Decitabine + Palbociclib = compound: Nc1ncn([C@H]2C[C@H](O)[C@@H](CO)O2)c(=O)n1 [Decitabine] + CC(=O)c1c(C)c2cnc(Nc3ccc(N4CCNCC4)cn3)nc2n(C2CCCC2)c1=O [Palbociclib] (partner 0.5 µM)
Method in brief: as §1

Decitabine + Vorinostat = compound: Nc1ncn([C@H]2C[C@H](O)[C@@H](CO)O2)c(=O)n1 [Decitabine] + O=C(CCCCCCC(=O)Nc1ccccc1)NO [Vorinostat] (partner 1 µM)
Method in brief: as §1

Cediranib + Alpelisib = compound: COc1cc2c(Oc3ccc4[nH]c(C)cc4c3F)ncnc2cc1OCCCN1CCCC1 [Cediranib] + Cc1nc(NC(=O)N2CCC[C@H]2C(N)=O)sc1-c1ccnc(C(C)(C)C(F)(F)F)c1 [Alpelisib] (partner 2 µM)
Method in brief: as §1

Row | Cell Line | relative viability (Halofuginone + AZD7762; first compound 0.001 µM) | relative viability (Halofuginone + AZD7762; first compound 0.003162 µM) | relative viability (Halofuginone + AZD7762; first compound 0.01 µM) | relative viability (Halofuginone + AZD7762; first compound 0.03162 µM) | relative viability (Halofuginone + AZD7762; first compound 0.1 µM) | relative viability (Decitabine + Palbociclib; first compound 0.04 µM) | relative viability (Decitabine + Palbociclib; first compound 0.1265 µM) | relative viability (Decitabine + Palbociclib; first compound 0.4 µM) | relative viability (Decitabine + Palbociclib; first compound 4 µM) | relative viability (Decitabine + Vorinostat; first compound 0.04 µM) | relative viability (Decitabine + Vorinostat; first compound 0.1265 µM) | relative viability (Decitabine + Vorinostat; first compound 0.4 µM) | relative viability (Decitabine + Vorinostat; first compound 4 µM) | relative viability (Cediranib + Alpelisib; first compound 0.04 µM) | relative viability (Cediranib + Alpelisib; first compound 0.1265 µM) | relative viability (Cediranib + Alpelisib; first compound 0.4 µM) | relative viability (Cediranib + Alpelisib; first compound 1.265 µM) | relative viability (Cediranib + Alpelisib; first compound 4 µM) | relative viability (Decitabine + Palbociclib; first compound 1.265 µM) | relative viability (Decitabine + Vorinostat; first compound 1.265 µM)
1 | 201T | 0.634 | 0.634 | 0.589 | 0.711 | 0.8 | 0.373 | 0.383 | 0.439 | 0.379 | 0.939 | 1.01 | 0.952 | 0.884 | 1.03 | 1.24 | 1.04 | 0.992 | 1.03 | – | –
2 | A549 | – | – | – | – | – | – | – | – | – | – | – | – | – | 0.698 | 0.947 | 0.654 | 0.701 | 0.869 | – | –
3 | A-427 | 0.729 | 0.806 | 0.805 | 0.77 | 0.497 | 0.451 | 0.466 | 0.378 | 0.381 | 0.789 | 0.732 | 0.526 | 0.396 | 1.04 | – | 1.08 | 1.01 | 1.08 | 0.431 | 0.411
4 | ABC-1 | – | 0.728 | 0.689 | 0.832 | 0.775 | – | 0.805 | 0.794 | 0.551 | – | 0.842 | 0.964 | 0.795 | 1.06 | 1.01 | 1.04 | – | 1.07 | 0.57 | 0.888
5 | BEN | 0.851 | 0.685 | 0.844 | 0.654 | 0.418 | 0.497 | 0.443 | 0.455 | 0.42 | 0.664 | 0.623 | 0.451 | 0.435 | 1.17 | 0.814 | 0.906 | 1.04 | 0.953 | 0.435 | 0.488
6 | CAL-12T | 0.642 | 0.688 | 0.584 | 0.695 | 0.695 | 0.279 | 0.431 | 0.25 | 0.288 | 0.615 | 0.432 | 0.486 | 0.238 | 1.38 | 1.13 | 1.05 | 1.26 | 1.13 | 0.28 | 0.318
7 | COR-L23 | – | – | – | – | – | 0.212 | 0.237 | 0.196 | 0.153 | 0.258 | 0.259 | 0.184 | 0.126 | 0.916 | 0.788 | 0.816 | 0.829 | 0.815 | 0.145 | 0.132
8 | COR-L 105 | – | – | – | – | – | 0.45 | 0.474 | 0.397 | 0.387 | 0.768 | 0.721 | 0.61 | 0.439 | – | 1.14 | 0.862 | 1.14 | 1.1 | 0.408 | 0.585
9 | Calu-6 | – | – | – | – | – | – | – | – | – | – | – | – | – | 1.06 | 1.01 | 0.991 | 0.935 | 1.04 | – | –
10 | ChaGo-K-1 | 0.869 | 0.839 | 0.854 | 0.874 | 0.885 | 0.764 | 0.545 | 0.442 | 0.637 | 0.771 | 0.684 | 0.402 | 0.374 | – | – | – | – | – | 0.362 | 0.39
11 | EBC-1 | – | – | – | – | – | – | – | – | – | – | – | – | – | 0.857 | 1.01 | 0.762 | 0.719 | 1.02 | – | –
